Reference: patent US10556905B2, “Processes for preparing a diazabicyclooctane compound” (priority 2012, dated 2020)
≈ marks a conversion by molar mass, not a printed value.

Columns and labels:
[1] = test system: extensively drug-resistant tuberculosis (XDR-TB); experiment: Anti-tubercle bacillus activity, liquid medium dilution MIC; format: cell-based; conditions: for MIC: Bacillus, 168 h, read-out: antibacterial activity (MIC) of β-lactam agent alone
[2] = test system: multi-drug resistant tuberculosis (MDR-TB); experiment: as above; format: cell-based; conditions: for MIC: Bacillus, 168 h, read-out: antibacterial activity (MIC) of β-lactam agent alone

| SMILES | MIC [1] [µg/mL] | MIC [2] [µg/mL] | further results |
| --- | --- | --- | --- |
| CC1(C)S[C@@H]2[C@H](NC(=O)[C@H](N)c3ccccc3)C(=O)N2[C@H]1C(=O)O [ABPC, ampicillin, reference compound] | 32 (≈ 91.6 µM) | 128 (≈ 366 µM) | – |
| CC1(C)S[C@@H]2[C@H](NC(=O)[C@H](N)c3ccc(O)cc3)C(=O)N2[C@H]1C(=O)O [AMPC, amoxicillin, reference compound] | 64 (≈ 175 µM) | 128 (≈ 350 µM) | – |
| C[C@@H](O)[C@H]1C(=O)N2C(C(=O)[O-])=C(SC3Cn4cnc[n+]4C3)[C@H](C)[C@H]12 (some centres unmarked) [BIPM, biapenem, reference compound] | 2 (≈ 5.71 µM) | 16 (≈ 45.7 µM) | – |
| NCCONC(=O)[C@@H]1CC[C@@H]2CN1C(=O)N2OS(=O)(=O)O [Example 59, (2S,5R)—N-(2-Aminoethoxy)-7-oxo-6-(sulfooxy)-1,6-diazabicyclo[3.2.1]octane-2-carboxamide] | – | – | antibacterial activity (MIC) of ABPC in combinatorial use ([1]; ABPC + 4 μg/mL compound, XDR-TB): 16 µg/mL; antibacterial activity (MIC) of AMPC in combinatorial use ([1]; AMPC + 4 μg/mL compound, XDR-TB): 16 µg/mL; antibacterial activity (MIC) of BIPM in combinatorial use ([1]; BIPM + 4 μg/mL compound, XDR-TB): 1 µg/mL; antibacterial activity (MIC) of MEPM in combinatorial use ([1]; MEPM + 4 μg/mL compound, XDR-TB): 1 µg/mL; antibacterial activity (MIC) of TBPM in combinatorial use ([1]; TBPM + 4 μg/mL compound, XDR-TB): 0.5 µg/mL; antibacterial activity (MIC) of ABPC in combinatorial use ([2]; ABPC + 4 μg/mL compound, MDR-TB): 32 µg/mL; antibacterial activity (MIC) of AMPC in combinatorial use ([2]; AMPC + 4 μg/mL compound, MDR-TB): 64 µg/mL; antibacterial activity (MIC) of BIPM in combinatorial use ([2]; BIPM + 4 μg/mL compound, MDR-TB): 4 µg/mL; antibacterial activity (MIC) of MEPM in combinatorial use ([2]; MEPM + 4 μg/mL compound, MDR-TB): 8 µg/mL; antibacterial activity (MIC) of TBPM in combinatorial use ([2]; TBPM + 4 μg/mL compound, MDR-TB): 2 µg/mL |
| C[C@@H](O)[C@H]1C(=O)N2C(C(=O)O)=C(S[C@@H]3CN[C@H](C(=O)N(C)C)C3)[C@H](C)[C@H]12 [MEPM, meropenem, reference compound] | 4 (≈ 10.4 µM) | 16 (≈ 41.7 µM) | – |
| C[C@@H](O)[C@H]1C(=O)N2C(C(=O)O)=C(SC3CN(C4=NCCS4)C3)[C@H](C)[C@H]12 [TBPM, tebipenem, reference compound] | 1 (≈ 2.61 µM) | 4 (≈ 10.4 µM) | – |
